Source: ChEMBL document CHEMBL3856260, “A synergistic antitumor effect of polyphyllin I and formosanin C on hepatocarcinoma cells” (Bioorg Med Chem Lett, 2016)
Active and inactive are the calls of the source. The rule behind the calls is not given here.

Key:
[1] = Cell cycle arrest in human HepG2 cells assessed as accumulation at G2 phase at 1 uM after 24 hrs by propidium iodide staining-based flow cytometry(reference value: 2.04%); type: functional
[2] = Cytotoxicity against human Bel7402 cells after 24 hrs by MTT assay; type: functional, cell-based; details: Bel-7402, 24 h
[3] = Cell cycle arrest in human HepG2 cells assessed as accumulation at G1 phase at 1 uM after 24 hrs by propidium iodide staining-based flow cytometry(reference value: 55.62%); type: functional
[4] = Cytotoxicity against human HepG2 cells assessed as combination index at ED75 using 1:1 compound to formosanin C incubated for 24 hrs by MTT assay; type: functional
[5] = Cytotoxicity against human Bel7402 cells assessed as combination index at ED50 using 1:1 compound to formosanin C incubated for 24 hrs by MTT assay; type: functional, Bel-7402
HepG2 [6] = assay: Induction of Bax translocation from cytosol to mitochondria in human HepG2 cells by Western blot analysis; type: functional, cell-based
[7] = Cell cycle arrest in human HepG2 cells assessed as accumulation at S phase at 1 uM after 24 hrs by propidium iodide staining-based flow cytometry in presence of formosanin C (reference value: 42.33%); type: functional
HepG2 [8] = assay: Induction of apoptosis in human HepG2 cells at 1 uM after 24 hrs by propidium iodide staining-based flow cytometry(reference value: 3.01%); type: functional
[9] = Suppression of MMP9 expression in human HepG2 cells assessed as reduction in enzyme activity at 1 uM after 24 hrs by zymographic analysis in presence of FC; type: functional, cell-based
HepG2 [10] = assay: Induction of Bax translocation from cytosol to mitochondria in human HepG2 cells by Western blot analysis in presence of FC; type: functional, cell-based
HepG2 [11] = assay: Increase in p21 mRNA level in human HepG2 cells at 1 uM incubated for 24 hrs by RT-PCR analysis in presence of formosanin C relative to polyphyllin I alone treatment; type: functional, cell-based
HepG2 [12] = assay: Induction of apoptosis in human HepG2 cells assessed as downregulation of NF-kappaB […] level at 1 uM incubated for 24 hrs by RT-PCR analysis in presence of formosanin C; type: functional, cell-based
[13] = Induction of apoptosis in human HepG2 cells assessed as upregulation of Bax level at 1 uM incubated for 24 hrs by Western blot analysis in presence of formosanin C; type: functional, cell-based
HepG2 [14] = assay: Change in PCNA mRNA level in human HepG2 cells at 1 uM incubated for 24 hrs by RT-PCR analysis in presence of formosanin C relative to polyphyllin I alone treatment; type: functional, cell-based
HepG2 [15] = assay: Increase in p21 level in human HepG2 cells at 1 uM incubated for 24 hrs by Western blot analysis in presence of FC; type: functional, cell-based
[16] = Induction of apoptosis in human HepG2 cells assessed as upregulation of caspase3 mRNA level at 1 uM incubated for 24 hrs by RT-PCR analysis in presence of formosanin C; type: functional, cell-based
[17] = Cell cycle arrest in human HepG2 cells assessed as accumulation at S phase at 1 uM after 24 hrs by propidium iodide staining-based flow cytometry(reference value: 42.33%); type: functional
HepG2 [18] = assay: Induction of chromatin compaction in human HepG2 cells at 1 uM after 24 hrs by Hoechst 33258 staining-based fluorescence microscopic analysis; type: functional, cell-based
HepG2 [19] = assay: Decrease in cyclin E level in human HepG2 cells at 1 uM incubated for 24 hrs Western blot analysis in presence of FC; type: functional, cell-based
HepG2 [20] = assay: Induction of nuclear fragmentation in human HepG2 cells at 0.5 uM after 24 hrs by Hoechst 33258 staining-based fluorescence microscopic analysis in presence of formosanin C; type: functional, cell-based
[21] = Suppression of MMP9 expression in human HepG2 cells at 1 uM after 24 hrs by Western blot analysis in presence of FC; type: functional, cell-based
[22] = Cytotoxicity against human HepG2 cells assessed as combination index at ED50 using 1:1 compound to formosanin C incubated for 24 hrs by MTT assay; type: functional
[23] = Induction of apoptosis in human HepG2 cells assessed as upregulation of p53 mRNA level at 1 uM incubated for 24 hrs by RT-PCR analysis in presence of formosanin C; type: functional, cell-based
[24] = Cell cycle arrest in human HepG2 cells assessed as accumulation at G2 phase at 1 uM after 24 hrs by propidium iodide staining-based flow cytometry in presence of formosanin C (reference value: 2.04%); type: functional
[25] = Cytotoxicity against human Bel7402 cells assessed as combination index at ED30 using 1:1 compound to formosanin C incubated for 24 hrs by MTT assay; type: functional, Bel-7402
HepG2 [26] = assay: Induction of nuclear fragmentation in human HepG2 cells at 1 uM after 24 hrs by Hoechst 33258 staining-based fluorescence microscopic analysis; type: functional, cell-based
HepG2 [27] = assay: Change in PCNA mRNA level in human HepG2 cells at 1 uM incubated for 24 hrs by RT-PCR analysis in presence of formosanin C relative to formosanin C treatment; type: functional, cell-based
[28] = Cytotoxicity against human HepG2 cells assessed as combination index at ED30 using 1:1 compound to formosanin C incubated for 24 hrs by MTT assay; type: functional
[29] = Cytotoxicity against human Bel7402 cells assessed as combination index at ED75 using 1:1 compound to formosanin C incubated for 24 hrs by MTT assay; type: functional, Bel-7402
[30] = Cytotoxicity against human HepG2 cells after 24 hrs by MTT assay; type: functional, cell-based; details: HepG2, 24 h
HepG2 [31] = assay: Decrease in CDK2 level in human HepG2 cells at 1 uM incubated for 24 hrs by Western blot analysis in presence of formosanin C relative to relative to polyphyllin I alone treatment; type: functional, cell-based
[32] = Induction of apoptosis in human HepG2 cells assessed as upregulation of p53 level at 1 uM incubated for 24 hrs by Western blot analysis in presence of formosanin C; type: functional, cell-based
HepG2 [33] = assay: Decrease in CDK2 level in human HepG2 cells at 1 uM incubated for 24 hrs by Western blot analysis in presence of FC; type: functional, cell-based
[34] = Induction of apoptosis in human HepG2 cells assessed as upregulation of Bax mRNA level at 1 uM incubated for 24 hrs by RT-PCR analysis in presence of formosanin C; type: functional, cell-based
HepG2 [35] = assay: Induction of cytochrome c release in human HepG2 cells by Western blot analysis; type: functional, cell-based
[36] = Cell cycle arrest in human HepG2 cells assessed as accumulation at G1 phase at 1 uM after 24 hrs by propidium iodide staining-based flow cytometry in presence of formosanin C (reference value: 55.62%); type: functional
HepG2 [37] = assay: Induction mitochondrial membrane potential changes in human HepG2 cells at 1 uM after 24 hrs by rhodamine 123 staining-based flow cytometry (reference value: 23.8+/-2.3%); type: functional
HepG2 [38] = assay: Induction of chromatin compaction in human HepG2 cells at 0.5 uM after 24 hrs by Hoechst 33258 staining-based fluorescence microscopic analysis in presence of formosanin C; type: functional, cell-based
[39] = Cytotoxicity against human Bel7402 cells assessed as combination index at ED90 using 1:1 compound to formosanin C incubated for 24 hrs by MTT assay; type: functional, Bel-7402
HepG2 [40] = assay: Antimigratory activity in human HepG2 cells at 1 uM after 24 hrs by wound healing assay in presence of FC; type: functional, cell-based
HepG2 [41] = assay: Induction of cytochrome c release in human HepG2 cells by Western blot analysis in presence of FC; type: functional, cell-based
[42] = Induction of apoptosis in human HepG2 cells assessed as upregulation of caspase3 level at 1 uM incubated for 24 hrs by Western blot analysis in presence of formosanin C; type: functional, cell-based
HepG2 [43] = assay: Increase in cyclin E mRNA level in human HepG2 cells at 1 uM incubated for 24 hrs by RT-PCR analysis in presence of formosanin C relative to polyphyllin I alone treatment; type: functional, cell-based
[44] = Cytotoxicity against human HepG2 cells assessed as combination index at ED90 using 1:1 compound to formosanin C incubated for 24 hrs by MTT assay; type: functional
HepG2 [45] = assay: Induction of apoptosis in human HepG2 cells assessed as downregulation of Bcl2 mRNA level at 1 uM incubated for 24 hrs by RT-PCR analysis in presence of formosanin C; type: functional, cell-based
HepG2 [46] = assay: Induction mitochondrial membrane potential changes in human HepG2 cells at 1 uM after 24 hrs by rhodamine 123 staining-based flow cytometry in presence of formosanin C (reference value: 23.8+/-2.3%); type: functional
HepG2 [47] = assay: Induction of apoptosis in human HepG2 cells at 1 uM after 24 hrs by propidium iodide staining-based flow cytometry in presence of formosanin C (reference value: 3.01%); type: functional

C[C@@H]1CC[C@@]2(OC1)O[C@H]1C[C@H]3[C@@H]4CC=C5C[C@@H](O[C@@H]6O[C@H](CO)[C@@H](O[C@@H]7O[C@@H](CO)[C@H](O)[C@H]7O)[C@H](O)[C@H]6O[C@@H]6O[C@@H](C)[C@H](O)[C@@H](O)[C@H]6O)CC[C@]5(C)[C@H]4CC[C@]3(C)[C@H]1[C@@H]2C
Activity [1]: 2.15% | IC50 [2]: 4.74 µM | Activity [3]: 59.5% | CI [4]: 0.56 | CI [5]: 0.58 | Activity (HepG2 [6]): Active | Activity [7]: 28.7% | Activity (HepG2 [8]): 5.28% | Activity [9]: Active | Activity (HepG2 [10]): Active | Activity (HepG2 [11]): Active | Activity (HepG2 [12]): Active | Activity [13]: Active | Activity (HepG2 [14]): Active | Activity (HepG2 [15]): Active | Activity [16]: Active | Activity [17]: 38.4% | Activity (HepG2 [18]): Active | Activity (HepG2 [19]): Active | Activity (HepG2 [20]): Active | Activity [21]: Active | CI [22]: 0.58 | Activity [23]: Active | Activity [24]: 2.63% | CI [25]: 0.67 | Activity (HepG2 [26]): Active | Activity (HepG2 [27]): Active | CI [28]: 0.62 | CI [29]: 0.52 | IC50 [30]: 4.01 µM | Activity (HepG2 [31]): Active | Activity [32]: Active | Activity (HepG2 [33]): Active | Activity [34]: Active | Activity (HepG2 [35]): Active | Activity [36]: 68.7% | Activity (HepG2 [37]): 27.9% | Activity (HepG2 [38]): Active | CI [39]: 0.46 | Activity (HepG2 [40]): Active | Activity (HepG2 [41]): Active | Activity [42]: Active | Activity (HepG2 [43]): Active | CI [44]: 0.54 | Activity (HepG2 [45]): Active | Activity (HepG2 [46]): 40.6% | Activity (HepG2 [47]): 7.52%
